{
  "source": "patent US20240115527A1",
  "about": "“CXCR1/CXCR2 INHIBITORS FOR USE IN TREATING MYELOFIBROSIS” (Icahn School of Medicine at Mount Sinai, priority 2020, published 2024)",
  "key": {"MF CD34+ cells": {"tested_on": "MF CD34+ cells", "test": "Colony forming assay (CFU-GM) of cultured MF CD34+ cells with IL-8", "assay_type": "cell-based, human", "description": "FIGS. 5A, 5B. 5C, 5D, and 5E illustrate that a CXCR1/CXCR2 inhibitor reverses effects of IL-8 on MF CD34^+ cell colony formation. […] CFU-GM=colony-forming unit-granulocyte-macrophage. FIGS. 5B and 5C illustrate that IL-8 increased CFU-GM colony formation by MF CD34^+ cells in a dose dependent fashion and that the effects of IL-8 were inhibited by treatment with Ladx. FIG. 5B. Normal cells. FIG. 5C. MF cells. […] Con=control. IL-8 concentrations increase from left to right. […] P values were as follows: w/o Ladx: Con vs IL-8—10 ng: 0.159332; Con vs IL-8—20 ng: 0.011976; Con vs IL-8—50 ng: 0.00262; Con vs IL-8—100 ng: 0.00042; w/ 10 μM Ladx: Con vs Ladx: 0.315782; IL-8—10 ng vs plus Ladx: 0.295851; IL-8—20 ng vs plus Ladx: 0.077726; IL-8—50 ng vs plus Ladx: 0.031355; IL-8—100 ng vs plus Ladx: 0.081595."}, "[1]": {"tested_on": "co-cultures of MF MNC and stromal cells", "test": "ELISA of IL-8 and VEGF in conditioned medium of co-cultures of MF MNC and splenic stromal cells", "assay_type": "cell-based, human", "description": "FIGS. 6A, 6B, 6C, 6D, and 6E illustrate that a CXCR1/CXCR2 inhibitor reverses effects of IL-8 on micro-environmental cells. […] N splenic AC=normal splenic adherent cells. nBM MNC=non-adherent bone marrow mononuclear cells. MNC=mononuclear cells. […] FIGS. 6D and 6E illustrate that addition of CXCR1/CXCR2 inhibitor Ladx decreased the levels of IL-8 (FIG. 6D) and VEGF (FIG. 6E) in conditioned medium harvested from co-cultures of MF MNC and stromal cells."}},
  "data": [
    {"compound": "C[C@@H](C(=O)NS(C)(=O)=O)c1ccc(OS(=O)(=O)C(F)(F)F)cc1", "note": "[Ladarixin, R(-)-2-[(4′-trifluoromethanesulfonyloxy)phenyl]-N-methanesulfonyl propionamide]", "values": [
      {"measurement": "effect on IL-8 increased CFU-GM colony formation by MF samples with the highest expression of CXCR1/CXCR2", "setting": "MF CD34+ cells; 10 μM Ladx, FIG. 5E", "result": "corrected"},
      {"measurement": "effect on IL-8 increased numbers of MF CFU-GM colonies", "setting": "MF CD34+ cells; addition of ladarixin, FIG. 5C", "result": "blunted"},
      {"measurement": "IL-8 levels in co-cultures (conditioned medium)", "setting": "[1]; FIG. 6D", "result": "decreased"},
      {"measurement": "VEGF levels in co-cultures (conditioned medium)", "setting": "[1]; FIG. 6E", "result": "decreased"}
    ]}
  ]
}
